# Results: patent US20100221388A1, “INSTANTLY SOLUBLE COMPOSITIONS FOR CALCIUM FORTIFICATION OF BEVERAGES” (priority 2008, published 2010)
# Tests used:
# [1] = system: Casein; assay: coagulation in casein-containing preparations with calcium salts (150 mg elemental calcium); format: physicochemical; settings: room temperature
# [2] = visual test of transparency for calcium-oxalate crystal formation in hot black tea with calcium salt (100 mg elemental calcium); format: physicochemical; settings: 240 ml hot black tea
# Description: The data describes the effect of different levels of Mg and ascorbic acid (vitamin C) on appearance of visible calcium oxalate precipitation. The experiments were performed with various soluble calcium salts by adding different levels of ascorbic acid and Magnesium citrate and testing the impact on formation of calcium-oxalate crystals in tea preparations. […] The calcium salt mixture was added and stirred into a cup holding 240 ml of hot black tea made with boiling tap water. A visual test of transparency was made at 5, 10, 15 and 20 minutes after adding the mixture to the tea for determining any impact on solution clarity by formation of calcium-oxalate crystals. If visible crystals were formed within 10 minutes the result was determined “unacceptable”, if visible crystals were formed between 10-20 minutes then the results was marked “borderline”. If no crystals were visible within 20 minutes the result was marked “acceptable”. FIGS. 1-5 show the experimental results for various calcium salts. In each of the figures the X-axis marks the amount of Magnesium Citrate (mg) and the Y-axis marks the amount of ascorbic acid (mg). Each indicia of a circle, diamond or square signifies the experimental outcome of a separate experiment; circles indicate an acceptable outcome, diamonds indicate a borderline acceptable (less than optimal) outcome, and squares indicate an unacceptable outcome.
# [3] = casein-containing non-dairy creamer in water
structure (smiles),measurement,setting,value
"O=P([O-])([O-])O.[K+].[K+] [PP, Potassium phosphate dibasic anhydrous]",level sufficient to limit the coagulation to a minimal and acceptable change in appearance,[1]; [3],825 mg
same,lowest level required for preventing coagulation,[1]; [3],3000 mg
same,lowest level that prevented coagulation,[1]; half & half (mix of milk and cream),500 mg
same,amount sufficient to prevent coagulation,[1]; whole milk (about 3% fat),10 mg
O=C1O[C@H]([C@@H](O)CO)C(O)=C1O [ascorbic acid],minimal amount of ascorbic acid required to delay or prevent calcium oxalate formation,[2]; in general across calcium salts (FIGS. 1-5),30 mg
"CC(=O)[O-].CC(=O)[O-].[Ca+2] [calcium acetate, Calcium diacetate]","need for additives to delay or prevent calcium oxalate formation, by calcium salt",[2]; ascorbic acid with or without Magnesium Citrate,additional “competing salt” is required even with higher level of ascorbic acids
